Test results from patent US20090304692A1, “TRIAZINE COMPOUNDS AS PI3 KINASE AND MTOR INHIBITORS” (Wyeth, priority 2008, published 2009).
Values joined by “and” are separate entries in the source; they are usually repeats but may differ in a detail not shown here. Equal entries are not always repeated. Where two headings read alike, the source gives them in different places.

Columns and labels:
[1] = target: PI3K-α (Homo sapiens, UniProt P42336); assay: PI3K-alpha fluorescence polarization assay; settings: read-out: IC50 PI3Kα
Chain of PI3K-α (P42336 whole entry, species assumed): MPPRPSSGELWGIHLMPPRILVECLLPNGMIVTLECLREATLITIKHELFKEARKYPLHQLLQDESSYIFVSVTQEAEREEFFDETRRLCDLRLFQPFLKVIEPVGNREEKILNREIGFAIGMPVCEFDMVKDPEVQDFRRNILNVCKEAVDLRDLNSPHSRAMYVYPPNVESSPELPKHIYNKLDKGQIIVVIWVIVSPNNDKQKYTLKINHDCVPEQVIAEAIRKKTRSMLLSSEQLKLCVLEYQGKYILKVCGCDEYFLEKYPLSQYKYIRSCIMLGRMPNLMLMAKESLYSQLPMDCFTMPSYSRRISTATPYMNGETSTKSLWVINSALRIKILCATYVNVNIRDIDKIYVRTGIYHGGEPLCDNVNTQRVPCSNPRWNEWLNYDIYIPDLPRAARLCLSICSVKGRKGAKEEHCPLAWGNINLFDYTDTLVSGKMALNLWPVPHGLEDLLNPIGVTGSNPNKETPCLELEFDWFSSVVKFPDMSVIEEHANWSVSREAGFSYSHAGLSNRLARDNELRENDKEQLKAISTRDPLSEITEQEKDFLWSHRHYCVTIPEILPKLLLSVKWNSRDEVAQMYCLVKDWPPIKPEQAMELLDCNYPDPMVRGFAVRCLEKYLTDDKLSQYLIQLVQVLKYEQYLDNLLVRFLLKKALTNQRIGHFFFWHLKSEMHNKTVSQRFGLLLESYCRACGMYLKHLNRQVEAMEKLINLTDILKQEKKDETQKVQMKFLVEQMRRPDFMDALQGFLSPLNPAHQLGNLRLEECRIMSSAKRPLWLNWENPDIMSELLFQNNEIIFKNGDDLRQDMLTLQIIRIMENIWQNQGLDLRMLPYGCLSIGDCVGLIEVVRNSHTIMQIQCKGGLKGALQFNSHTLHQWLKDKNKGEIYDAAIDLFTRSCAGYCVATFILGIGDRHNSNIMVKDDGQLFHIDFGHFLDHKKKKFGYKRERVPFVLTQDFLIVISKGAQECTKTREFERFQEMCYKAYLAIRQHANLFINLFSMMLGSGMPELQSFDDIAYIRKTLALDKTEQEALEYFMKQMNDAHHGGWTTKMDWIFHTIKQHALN
Chain of PI3K-α (P27986 whole entry partner, species assumed): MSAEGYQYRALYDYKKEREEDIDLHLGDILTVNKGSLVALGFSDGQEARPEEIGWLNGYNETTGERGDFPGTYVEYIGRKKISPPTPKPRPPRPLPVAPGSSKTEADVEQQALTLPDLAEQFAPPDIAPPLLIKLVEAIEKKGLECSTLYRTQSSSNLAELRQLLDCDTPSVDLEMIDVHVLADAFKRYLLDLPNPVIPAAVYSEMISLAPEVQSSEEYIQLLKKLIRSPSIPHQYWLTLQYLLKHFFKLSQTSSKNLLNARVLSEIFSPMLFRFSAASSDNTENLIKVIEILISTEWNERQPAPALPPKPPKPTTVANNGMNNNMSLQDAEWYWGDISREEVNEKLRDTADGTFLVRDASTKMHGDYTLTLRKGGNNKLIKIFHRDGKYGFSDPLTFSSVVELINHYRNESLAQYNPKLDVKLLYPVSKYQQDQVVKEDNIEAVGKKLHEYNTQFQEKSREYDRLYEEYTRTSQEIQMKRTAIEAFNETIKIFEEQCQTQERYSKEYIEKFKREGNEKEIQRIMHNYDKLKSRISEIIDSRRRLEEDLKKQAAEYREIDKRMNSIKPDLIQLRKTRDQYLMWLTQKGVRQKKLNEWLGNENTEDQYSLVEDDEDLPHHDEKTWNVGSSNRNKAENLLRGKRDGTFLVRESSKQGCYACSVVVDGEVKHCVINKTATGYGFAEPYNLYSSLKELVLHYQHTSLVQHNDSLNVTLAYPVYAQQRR

[2] = target: Human mTOR (FLAG-TOR) (Homo sapiens, UniProt P42345); assay: mTOR kinase assay (DELFIA format, purified enzyme); format: biochemical; settings: read-out: IC50 mTOR
Chain of Human mTOR (FLAG-TOR) (P42345 1360-2549 limits assumed): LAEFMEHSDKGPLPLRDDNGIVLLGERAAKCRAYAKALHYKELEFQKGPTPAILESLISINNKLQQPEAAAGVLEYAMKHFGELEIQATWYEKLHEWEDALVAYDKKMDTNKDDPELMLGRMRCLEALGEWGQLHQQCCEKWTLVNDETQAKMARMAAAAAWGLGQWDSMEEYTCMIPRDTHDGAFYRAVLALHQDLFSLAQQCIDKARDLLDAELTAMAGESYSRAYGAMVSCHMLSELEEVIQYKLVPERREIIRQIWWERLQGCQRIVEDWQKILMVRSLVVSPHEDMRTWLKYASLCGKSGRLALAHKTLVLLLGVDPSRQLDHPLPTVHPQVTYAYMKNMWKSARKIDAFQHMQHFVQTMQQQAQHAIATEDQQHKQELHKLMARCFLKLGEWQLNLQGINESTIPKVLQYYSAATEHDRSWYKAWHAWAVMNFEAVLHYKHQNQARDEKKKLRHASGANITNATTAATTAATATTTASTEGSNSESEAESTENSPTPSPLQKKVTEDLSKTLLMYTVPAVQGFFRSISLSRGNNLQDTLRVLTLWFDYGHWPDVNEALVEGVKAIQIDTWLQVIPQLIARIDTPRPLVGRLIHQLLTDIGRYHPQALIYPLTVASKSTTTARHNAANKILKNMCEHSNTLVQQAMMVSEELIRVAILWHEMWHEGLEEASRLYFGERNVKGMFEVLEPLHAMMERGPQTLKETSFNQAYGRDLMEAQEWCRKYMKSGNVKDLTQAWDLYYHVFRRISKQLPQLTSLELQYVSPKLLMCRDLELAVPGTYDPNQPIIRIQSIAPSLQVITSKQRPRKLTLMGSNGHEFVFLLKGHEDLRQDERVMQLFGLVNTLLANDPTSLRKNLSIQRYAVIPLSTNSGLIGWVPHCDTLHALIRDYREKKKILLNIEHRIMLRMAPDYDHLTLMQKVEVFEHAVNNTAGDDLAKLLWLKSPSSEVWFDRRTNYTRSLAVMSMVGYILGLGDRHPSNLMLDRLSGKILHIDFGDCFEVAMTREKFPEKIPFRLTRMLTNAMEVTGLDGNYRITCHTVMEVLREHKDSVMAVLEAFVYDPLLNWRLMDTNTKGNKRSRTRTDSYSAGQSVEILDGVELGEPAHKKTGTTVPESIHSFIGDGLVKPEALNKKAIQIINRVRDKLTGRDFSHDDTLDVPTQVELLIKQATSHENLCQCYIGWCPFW

[3] = test system: human breast MDA-MB-361 tumor cell line; assay: In vitro cell culture growth assay (MTS), MDA-MB-361; format: cell-based; settings: Homo sapiens, three days after drug treatment, read-out: IC50 MDA-MB-361
[4] = target: PI3K-γ (Homo sapiens, UniProt P48736); assay: PI3K-gamma fluorescence polarization assay; settings: read-out: IC50 PI3Kγ
Chain of PI3K-γ (P48736 whole entry, species assumed): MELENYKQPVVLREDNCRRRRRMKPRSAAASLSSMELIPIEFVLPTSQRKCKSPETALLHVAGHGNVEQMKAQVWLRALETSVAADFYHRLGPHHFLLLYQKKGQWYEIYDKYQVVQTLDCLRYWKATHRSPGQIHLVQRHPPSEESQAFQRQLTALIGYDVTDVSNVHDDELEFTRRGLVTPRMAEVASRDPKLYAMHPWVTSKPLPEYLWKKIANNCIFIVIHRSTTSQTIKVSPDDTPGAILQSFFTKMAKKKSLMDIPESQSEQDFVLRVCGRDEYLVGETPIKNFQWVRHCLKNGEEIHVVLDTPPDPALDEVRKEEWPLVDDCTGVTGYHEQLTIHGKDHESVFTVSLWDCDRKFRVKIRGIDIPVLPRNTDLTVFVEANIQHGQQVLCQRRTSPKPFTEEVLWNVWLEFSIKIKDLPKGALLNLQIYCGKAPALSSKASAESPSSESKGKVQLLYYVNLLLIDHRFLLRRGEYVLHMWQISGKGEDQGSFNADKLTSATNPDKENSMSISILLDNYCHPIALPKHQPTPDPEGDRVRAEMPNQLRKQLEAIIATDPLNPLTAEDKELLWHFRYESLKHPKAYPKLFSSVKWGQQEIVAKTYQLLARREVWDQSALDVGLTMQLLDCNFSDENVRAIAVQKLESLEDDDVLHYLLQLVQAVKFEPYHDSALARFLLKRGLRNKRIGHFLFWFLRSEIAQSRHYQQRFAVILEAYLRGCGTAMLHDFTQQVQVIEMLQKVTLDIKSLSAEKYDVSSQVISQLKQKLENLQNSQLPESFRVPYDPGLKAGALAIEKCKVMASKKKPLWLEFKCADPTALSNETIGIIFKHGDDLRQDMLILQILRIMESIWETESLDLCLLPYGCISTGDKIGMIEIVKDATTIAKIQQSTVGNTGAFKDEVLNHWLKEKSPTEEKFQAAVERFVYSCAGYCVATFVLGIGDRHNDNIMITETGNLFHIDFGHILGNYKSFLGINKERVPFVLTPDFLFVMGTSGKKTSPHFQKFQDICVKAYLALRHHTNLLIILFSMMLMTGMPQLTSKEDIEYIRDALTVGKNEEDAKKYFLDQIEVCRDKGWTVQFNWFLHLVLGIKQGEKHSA

[5] = test system: human prostate PC3-mm2 tumor cell line; assay: In vitro cell culture growth assay (MTS), PC3-mm2; format: cell-based; settings: Homo sapiens, PC3MM2, 72 h, three days after drug treatment, read-out: IC50 PC3-mm2
[6] = MDA-MB-361, 72 h, MTS cell growth assay, MDA-MB-361 cells
[7] = MDA-MB-361, 72 h, MTS cell growth assay
[8] = MTS cell growth assay, PC3-mm2 cells
[9] = 72 h, MTS cell growth assay, MDA-MB-361 cells

Row | IC50 [1] [µM] | IC50 [2] | IC50 [3, 6] [µM] | IC50 [3, 7] [µM] | IC50 [4] [µM] | IC50 ([4]; listed as 533) [µM] | IC50 [5, 8] [µM] | IC50 ([5]; MTS cell growth assay) [µM] | IC50 [3, 9] [µM] | IC50 ([1]; listed as 735) [µM] | IC50 ([4]; listed as 735) [µM] | IC50 ([3]; MDA-MB-361, 72 h, MDA-MB-361 cells, MTS) [µM] | IC50 ([1]; listed as 705) [µM] | SMILES | IC50 ([5]; PC3-mm2 cells, MTS) [µM] | IC50 ([3]; 72 h, MDA-MB-361 cells, MTS) [µM]
1 | 0.007 | 0.07 µM and 0.0705 µM | 0.142 | 0.142 | 0.098 | 0.0985 | 0.373 | 0.373 |  |  |  |  |  | Cc1ccc(-c2nc(-c3ccc(NC(=O)Nc4ccc(C(=O)N5CCN(C)CC5)cc4)cc3)nc(N3CCOCC3)n2)cc1 [Example 337, 1-{4-[4-(4-methylphenyl)-6-morpholin-4-yl-1,3,5-triazin-2-yl]phenyl}-3-{4-[(4-methylpiperazin-1-yl)carbonyl]phenyl}urea] |  | 
2 | 0.015 | 0.0119 µM |  |  | 0.157 |  | > 1 |  | 0.521 |  |  |  |  | Cc1ccc(-c2nc(-c3ccc(NC(=O)Nc4ccc(C(=O)NCCCN(C)C)cc4)cc3)nc(N3CCOCC3)n2)cc1 [Example 554, N-[3-(dimethylamino)propyl]-4-[({4-[4-(4-methylphenyl)-6-morpholin-4-yl-1,3,5-triazin-2-yl]phenyl}carbamoyl)amino]benzamide] |  | 
3 | 0.0064 | 0.006 µM | 0.009 |  | 0.038 |  | 0.037 |  |  |  |  |  |  | CCN1CCN(C(=O)c2ccc(NC(=O)Nc3ccc(-c4nc(N5CCOCC5)nc(N5CCN(C(=O)N(C)C)CC5)n4)cc3)cc2)CC1 [Example 649, 4-(4-{4-[({4-[(4-ethylpiperazin-1-yl)carbonyl]phenyl}carbamoyl)amino]phenyl}-6-morpholin-4-yl-1,3,5-triazin-2-yl)-N,N-dimethylpiperazine-1-carboxamide] |  | 
4 | 0.048 | 0.00275 µM |  | 0.333 | 0.101 |  |  | 0.364 |  |  |  |  |  | COC(=O)c1ccc(NC(=O)Nc2ccc(-c3nc(OC(C)C)nc(N4CCOCC4)n3)cc2)cc1 [Example 95, methyl 4-({[4-(4-isopropoxy-6-morpholin-4-yl-1,3,5-triazin-2-yl)phenyl]carbamoyl}amino)benzoate] |  | 
5 | 0.004 | 0.00485 µM |  |  | 0.0395 |  | 0.389 |  | 0.355 |  |  |  |  | CN1CCC(Oc2nc(-c3ccc(NC(=O)Nc4ccncc4)cc3)nc(N3CCOCC3)n2)CC1 [Example 687, 1-(4-{4-[(1-methylpiperidin-4-yl)oxy]-6-morpholin-4-yl-1,3,5-triazin-2-yl}phenyl)-3-pyridin-4-ylurea] |  | 
6 | 0.0062 | 0.007 µM | 0.019 |  | 0.0425 |  | 0.059 |  |  |  |  |  |  | CN1CCN(C(=O)c2ccc(NC(=O)Nc3ccc(-c4nc(N5CCOCC5)nc(N5CCN(C(=O)N(C)C)CC5)n4)cc3)cc2)CC1 [Example 643, N,N-dimethyl-4-(4-{4-[({4-[(4-methylpiperazin-1-yl)carbonyl]phenyl}carbamoyl)amino]phenyl}-6-morpholin-4-yl-1,3,5-triazin-2-yl)piperazine-1-carboxamide] |  | 
7 | 0.0255 | 0.009 µM |  |  | 0.122 |  | 0.718 |  | 0.239 |  |  |  |  | O=C(Nc1ccncc1)Nc1ccc(-c2nc(N3CCCCC3)nc(N3CCOCC3)n2)cc1 [Example 592, 1-[4-(4-morpholin-4-yl-6-piperidin-1-yl-1,3,5-triazin-2-yl)phenyl]-3-pyridin-4-ylurea] |  | 
8 | 0.026 | 0.25 µM and 0.123 µM |  | 2.3 | 0.344 |  | 3.7 | 3.7 |  | 0.0265 | 0.289 |  |  | CN(C)CCNCCCc1nc(-c2ccc(NC(=O)Nc3ccncc3)cc2)nc(N2CCOCC2)n1 [Example 278, 1-{4-[4-(3-{[2-(dimethylamino)ethyl]amino}propyl)-6-morpholin-4-yl-1,3,5-triazin-2-yl]phenyl}-3-pyridin-4-ylurea] |  | 
9 | 0.0135 | 0.001 µM |  |  | 0.0845 |  | 0.023 |  | 0.005 |  |  |  |  | CC(C)N1CCN(C(=O)c2ccc(NC(=O)Nc3ccc(-c4nc(N5CCOC[C@H]5C)nc(N5CCOC[C@@H]5C)n4)cc3)cc2)CC1 [Example 630, 1-(4-{[4-(1-methylethyl)piperazin-1-yl]carbonyl}phenyl)-3-(4-{4-[(3R)-3-methylmorpholin-4-yl]-6-[(3S)-3-methylmorpholin-4-yl]-1,3,5-triazin-2-yl}phenyl)urea] |  | 
10 | 0.025 | 0.00845 µM |  | 0.376 | 0.154 |  |  | 0.59 |  |  |  |  |  | CC(C)(C)OC(=O)N1CC(Nc2nc(-c3ccc(NC(=O)Nc4ccccc4)cc3)nc(N3CCOCC3)n2)C1 [Example 14, tert-butyl 3-[(4-morpholin-4-yl-6-{4-[(phenylcarbamoyl)amino]phenyl}-1,3,5-triazin-2-yl)amino]azetidine-1-carboxylate] |  | 
11 | 0.012 | 0.0035 µM |  | 0.064 | 0.095 |  |  | 0.109 |  |  |  |  |  | CC(C)c1nc(-c2ccc(NC(=O)Nc3ccc(C(=O)Nc4ccncc4)cc3)cc2)nc(N2CCOCC2)n1 [Example 309, 4-[({4-[4-(1-methylethyl)-6-morpholin-4-yl-1,3,5-triazin-2-yl]phenyl}carbamoyl)amino]-N-pyridin-4-ylbenzamide] |  | 
12 | 0.041 | 0.0305 µM |  | > 10 | 0.258 |  |  | > 10 |  |  |  |  |  | Cc1ccc(NC(=O)Nc2ccc(-c3nc(NC4CNC4)nc(N4CCOCC4)n3)cc2)cc1 [Example 20, 1-{4-[4-(azetidin-3-ylamino)-6-morpholin-4-yl-1,3,5-triazin-2-yl]phenyl}-3-(4-methylphenyl)urea] |  | 
13 | 0.0028 | 0.00205 µM |  |  | 0.0305 |  |  |  |  |  |  | 0.002 |  | CN(C)C1CCN(C(=O)c2ccc(NC(=O)Nc3ccc(-c4nc(N5CCOCC5)nc(N5CC6CCC5CO6)n4)cc3)cc2)CC1 (stereo not drawn) [Example 810, 1-(4-{[4-(dimethylamino)piperidin-1-yl]carbonyl}phenyl)-3-{4-[4-morpholin-4-yl-6-(2-oxa-5-azabicyclo[2.2.2]oct-5-yl)-1,3,5-triazin-2-yl]phenyl}urea] | 0.026 | 
14 | 0.0055 | 0.061 µM | 0.038 |  | 0.067 |  | 0.227 |  |  |  |  |  |  | O=C(Nc1ccc(C(=O)N2CCCC2)cc1)Nc1ccc(-c2nc(N3CCCC3)nc(N3CCOCC3)n2)cc1 [Example 612, 1-[4-(4-morpholin-4-yl-6-pyrrolidin-1-yl-1,3,5-triazin-2-yl)phenyl]-3-[4-(pyrrolidin-1-ylcarbonyl)phenyl]urea] |  | 
15 | 0.014 | 0.008 µM and 0.0124 µM |  | 0.191 | 0.132 |  | 0.416 | 0.416 |  |  |  |  | 0.0135 | O=C(Nc1ccncc1)Nc1ccc(-c2nc(N3CCOCC3)nc(N3CCC4(CC3)OCCO4)n2)cc1 [Example 130, 1-{4-[4-(1,4-dioxa-8-azaspiro[4.5]dec-8-yl)-6-morpholin-4-yl-1,3,5-triazin-2-yl]phenyl}-3-pyridin-4-ylurea] |  | 
16 | 0.017 | 0.0063 µM |  | 0.045 | 0.438 |  |  | 0.043 |  |  |  |  |  | Cc1ccc(NC(=O)Nc2ccc(-c3nc(N4CCOCC4)nc(N4CCOCC4)n3)cc2)cc1 [Example 5, 1-[4-(4,6-dimorpholin-4-yl-1,3,5-triazin-2-yl)phenyl]-3-(4-methylphenyl)urea] |  | 

Row | SMILES | IC50 [1] [µM] | IC50 [2] | IC50 [3, 6] [µM] | IC50 [3, 7] [µM] | IC50 [4] [µM] | IC50 ([4]; listed as 533) [µM] | IC50 [5, 8] [µM] | IC50 ([5]; MTS cell growth assay) [µM] | IC50 [3, 9] [µM] | IC50 ([1]; listed as 735) [µM] | IC50 ([4]; listed as 735) [µM] | IC50 ([3]; MDA-MB-361, 72 h, MDA-MB-361 cells, MTS) [µM] | IC50 ([1]; listed as 705) [µM] | IC50 ([5]; PC3-mm2 cells, MTS) [µM] | IC50 ([3]; 72 h, MDA-MB-361 cells, MTS) [µM]
17 | CN1C2CCC1CC(Oc1nc(-c3ccc(NC(=O)Nc4ccncc4)cc3)nc(N3CCOCC3)n1)C2 (stereo not drawn) [Example 102, 1-{4-[4-(8-methyl-8-aza-bicyclo[3.2.1]oct-3-yloxy)-6-morpholin-4-yl-[1,3,5]triazin-2-yl]-phenyl}-3-pyridin-4-yl-urea] | 0.006 | 0.0061 µM |  | 0.592 | 0.084 |  |  | 0.854 |  |  |  |  |  |  | 
18 | CNCCN(C)C(=O)c1ccc(NC(=O)Nc2ccc(-c3nc(N4CCOCC4)nc(N4C5CCC4COC5)n3)cc2)cc1 [Example 701, N-methyl-N-[2-(methylamino)ethyl]-4-[({4-[4-morpholin-4-yl-6-(3-oxa-8-azabicyclo[3.2.1]oct-8-yl)-1,3,5-triazin-2-yl]phenyl}carbamoyl)amino]benzamide] | 0.002 | 0.00036 µM |  |  | 0.025 |  | < 0.03 |  | < 0.03 |  |  |  |  |  | 
19 | O=C(Nc1ccncc1)Nc1ccc(-c2nc(N3CCOCC3)nc(N3C4COCC3[C@@H](O)C4)n2)cc1 (stereo partly drawn) [Example 818, 1-(4-{4-[(6S)-6-hydroxy-3-oxa-8-azabicyclo[3.2.1]oct-8-yl]-6-morpholin-4-yl-1,3,5-triazin-2-yl}phenyl)-3-pyridin-4-ylurea] | 0.0377 | 0.002 µM |  |  | 0.185 |  |  |  |  |  |  |  |  | 0.237 | 0.129
20 | CN(C)C(=O)c1ccc(NC(=O)Nc2ccc(-c3nc(N4CCOCC4)nc(N4C5CCC4COC5)n3)cc2)cc1 [Example 695, N,N-dimethyl-4-[({4-[4-morpholin-4-yl-6-(3-oxa-8-azabicyclo[3.2.1]oct-8-yl)-1,3,5-triazin-2-yl]phenyl}carbamoyl)amino]benzamide] | 0.004 | 0.00028 µM |  |  | 0.0705 |  | 0.007 |  | 0.006 |  |  |  |  |  | 
